Reference: US10537100B2, “Substituted methylenedioxybenzyl compounds and their use as synergists” (Endura SPA, priority 2015, dated 2020)
Marks after values point to notes of the source that are not given here.

Columns and labels:
Assay type in all cases: in vivo
Blattella germanica = assay: Contact test on treated glass vials, synergist with cypermethrin; settings: cypermethrin 120 μg/mL, synergist 1.0 g/L; for knock down: average of 4 repetitions
Protocol: Laboratory bred B. germanica species, mixed ages (pre-immaginal and imagoes) and mixed sex were assayed for the test.
An insecticide stock solution was prepared with 150 μL of cypermethrin commercial formulation and diluted to 15 μL/mL with technical acetone to a final volume of 10 mL. The solution contained 450 μg/mL of cypermethrin per liter of insecticidal solution
Stock solution of the compounds of Example 1 and Example 2 were prepared dissolving around 10 mg of EC formulations containing compounds of the Example 1 and Example 2 in technical acetone to have a final concentration of 1.365 μg/mL.
Stock solution (1650 μL) was diluted to 2250 μL with acetone or with stock of insecticide in acetone to have respectively a final concentration of 1 g/L of synergist (as active ingredient) or 0.12 g/L of cypermethrin+1 g/L of the compounds of Example 1 and Example 2. Insecticide alone was prepared adding 600 μL of stock solution to 1650 μL of acetone.
Glass vials (internal surface 35 cm^2) were treated with 350 μL of insecticide solution and allowed to dry in a fume hood on a vial rotator and used as soon as the acetone was fully evaporated.
B. germanica specimens were introduced singly in vials. 20 specimens were tested for each combination of product. The exposure time to product residues was 30 minutes. After this duration the specimens were transferred to an untreated vial ad provided with food and water.
In parallel within the test, a control study has been set up with the same conditions and methods using acetone only treated vials.
The test conditions were as follows: • temperature: 22-24° C. during knock down evaluation (t: 0-30′); 26° C. during mortality assessment (t: 24 h) • relative humidity: min. 60% • light regime: 8 hrs dark/16 hrs natural illumination.
The reading intervals of the number of knocked down and the number of dead insects were: 5-10-15-20-25-30 minutes. A final reading was done 24 hours after the starting of the exposure.
The calculation model of efficacy is according to Abbott's formula (Abbott W S (1925) A method for computing the effectiveness of an insecticide. J. Econ. Entomol. 18: 265-267):
The results are reported in the following Table 5 and represent an average of 4 repetitions.

Musca domestica = assay: Contact test on treated glass surfaces, synergist with cypermethrin
Protocol: Laboratory bred Musca domestica species, 4-5 days old mixed sex imagoes derived from a field collected strain were assayed for the test. 1000 ml of test solutions were prepared diluting in water 6.06 grams of cypermethrin commercial formulation, equivalent to 0.224 g of cypermethrin per liter of insecticidal solution and a suitable amount of synergist such as to have a ratio between cypermethryn and synergists=1:13. The synergists were formulated in the form of emulsified concentrate (EC). The following amount of the formulations of synergist EC were added to the above described insecticidal solution of cypermethrin.
3.83 g of EC formulation containing 77.1% (w/w) of the compound of Example 2 (5-n-butyl-6-((prop-2-ynyloxy)methyl)benzo[d][1,3]dioxole)
3.57 g of EC formulation containing 83% (w/w) of the comparison compound 5-(but-2-ynyloxymethyl)-6-n-propyl-benzo[1,3]dioxole (EN126) corresponding to 2.95 g of the compound of the invention and of the comparison product per liter of test formulation
1 ml of each test formulation was applied to each individual grass surface of 100 cm^2 by means of a hand held pump sprayer on a scale measuring by 2 decimal precision, being the acceptable limit of divergence: +/−10%. The treated glass surfaces were left at room temperature for 24 hours after treatment and prior to be used. 40 mixed sex Musca domestica imagoes (20 males and 20 females) were selected and placed into a 500 cm^3 glass cylinders covered with an untreated glass surface until the start of the study. Five replicates were executed, altogether 200 houseflies (100 males and 100 females) were used per test formulation. At the beginning of the test, the untreated glass covering the glass cylinder was replaced with a glass surface treated with the test formulation. The exposure time was 30 minutes. After this period of time, the treated glass surfaces were removed and replaced with untreated ones. During the test water and food (water/sugar solution) were provided to the test insect inside the glass cylinders
In parallel with the test, the mortality of flies in an untreated control replicate was determined using the same conditions and methods. Throughout the control test, non-treated glass surfaces covered the glass cylinders. The maximum mortality rate allowed within the control group to consider the test representative was 10% after 24 hours. If above this value, the test was not considered representative and was repeated. During the trials, no deviance has been noted.
The test conditions were as follows: • temperature: 23-25° C. • relative humidity: min. 60% • light regime: 12 hrs dark/12 hrs natural illumination.
The reading intervals of the number of knocked down flies were: 10-20-30-40-50-60-90-120-180 minutes. Mortality was determined after 24 hours.
The efficacy was calculated according the following formula

[1] = tested on: Myzus persicae clone highly resistant to insecticide; assay: Contact test on treated plant (pea seedling dip), synergist with neonicotinoid; settings: synergist 1 g/L, mortality assessed at 48 hours, Abbott's formula
Protocol: Laboratory bred Myzus persicae clone highly resistant to insecticide, derived from a field collected population after control failure, mixed age apterous parthenogenetic females adults, were assayed for the test.
Four (4) different commercially available formulated insecticides were used and diluted as follow: • imidacloprid: 1000 mL of test solution was prepared diluting in water 20 μL of commercial formulation, containing 200 g/L of a.i., equivalent to 0.004 g of imidacloprid per liter of insecticidal solution; • thiacloprid: 1000 mL of test solution was prepared diluting in water 24 μL of commercial formulation containing 480 g/L of a.i, equivalent to 0.012 g of thiacloprid per liter of insecticidal solution;
The compounds of Example 1 and Example 2 were formulated in the form of emulsified concentrate (EC).
The following amount of the EC formulations were added to the above described insecticidal solution of insecticide to have a final concentration of synergist equal to 1 g/L:
20 mL of test formulations were used to wet by dipping for 5″ a small pea seedling (1-1.5 cm long). Seedlings were left at room temperature in a fume hood and allowed to dry for 15″. After drying 10-15 apterous parthenogenetic females were moved to the seedling and allowed to settle. Mortality produced by pyrethroids was assessed 24 hours later. Mortality produced by neonicotinoids was assessed 48 hours later.
Three replicates were executed each composed by 2 subreplicates (seedlings) and 60-90 specimens were used per test formulation.
In parallel with the test, the mortality of aphids in an untreated control replicate (seedlings dipped in water) was determined using the same conditions and methods.
The efficacy was calculated according the Abbott's formula: […]

CC1(C)C(C=C(Cl)Cl)C1C(=O)OC(C#N)c1cccc(Oc2ccccc2)c1 (centres unmarked) [Cypermethrin, cypermethrin]
mortality at 120 µg/mL (Blattella germanica; Blattella germanica, 24 h after start of 30 min exposure, Abbott's formula): 22.9% | knock down (Blattella germanica; reading at 5′): 0 | knock down (Blattella germanica; reading at 10′): 6.7 | knock down (Blattella germanica; reading at 15′): 20 | knock down (Blattella germanica; reading at 20′): 40 | knock down (Blattella germanica; reading at 25′): 56.7 | knock down (Blattella germanica; reading at 30′): 60 | mortality by % (Musca domestica; 24 h, 30 min exposure, cypermethrin formulation 6.06 g/l (0.224 g/l a.i.), cypermethrin:synergist 1:13): 61% | Efficacy % (Musca domestica; calculated from 24 h mortality against untreated control): 58.95% | knock down by % (Musca domestica; reading at 10′, 30 min exposure, cypermethrin formulation 6.06 g/l (0.224 g/l a.i.), cypermethrin:synergist 1:13): 6* % | knock down by % (Musca domestica; reading at 20′, 30 min exposure, cypermethrin formulation 6.06 g/l (0.224 g/l a.i.), cypermethrin:synergist 1:13): 46% | knock down by % (Musca domestica; reading at 30′, 30 min exposure, cypermethrin formulation 6.06 g/l (0.224 g/l a.i.), cypermethrin:synergist 1:13): 68% | knock down by % (Musca domestica; reading at 40′, 30 min exposure, cypermethrin formulation 6.06 g/l (0.224 g/l a.i.), cypermethrin:synergist 1:13): 83% | knock down by % (Musca domestica; reading at 50′, 30 min exposure, cypermethrin formulation 6.06 g/l (0.224 g/l a.i.), cypermethrin:synergist 1:13): 85% | knock down by % (Musca domestica; reading at 60′, 30 min exposure, cypermethrin formulation 6.06 g/l (0.224 g/l a.i.), cypermethrin:synergist 1:13): 85% | knock down by % (Musca domestica; reading at 90′, 30 min exposure, cypermethrin formulation 6.06 g/l (0.224 g/l a.i.), cypermethrin:synergist 1:13): 82% | knock down by % (Musca domestica; reading at 120′, 30 min exposure, cypermethrin formulation 6.06 g/l (0.224 g/l a.i.), cypermethrin:synergist 1:13): 76% | knock down by % (Musca domestica; reading at 180′, 30 min exposure, cypermethrin formulation 6.06 g/l (0.224 g/l a.i.), cypermethrin:synergist 1:13): 73%

N#C/N=C1\SCCN1Cc1ccc(Cl)nc1 [thiacloprid, reference compound]
Efficacy of the tested compounds ([1]; thiacloprid (0.012 g per liter)): 36.242

O=[N+]([O-])NC1=NCCN1Cc1ccc(Cl)nc1 [Imidacloprid, imidacloprid, reference compound]
Efficacy of the tested compounds ([1]; Imidacloprid (0.004 g per liter)): 14.2
